Experimental findings from ChEMBL document CHEMBL5465560, “Selectivity Literature for EUbOPEN Chemogenomic Library” (2024) are described below.

Structures are written as SMILES.

In assay [1] the target is MAP kinase-interacting serine/threonine-protein kinase 2 (Homo sapiens, UniProt Q9HBH9). The conditions noted are these: at 1 µM.
The target in assay [2] is Calcium/calmodulin-dependent protein kinase type II subunit gamma (Homo sapiens) (UniProt Q13555). Kind of assay: Selectivity interaction (KinaseProfile service (Milipore)) EUB0001485aCl CAMK2G. The conditions noted are these: at 1 µM.
The target in assay [3] is Calcium/calmodulin-dependent protein kinase type II subunit delta (Homo sapiens) (UniProt Q13557). The conditions noted are these: at 1 µM.
Assay [4] concerns the target 5-hydroxytryptamine receptor 1B (Homo sapiens) (UniProt P28222). The assay is described as follows: Selectivity interaction (CEREB panel (panel of receptors, transporters, ion channels, and other enzymes)) EUB0001119a HTR1B. The conditions noted are these: at 10 µM.
In assay [5] the target is Serine/threonine-protein kinase SIK1 (Homo sapiens) (UniProt P57059). The assay is described as follows: Selectivity interaction (Kinase panel (Invitrogen)) EUB0001119a SIK1. The conditions noted are these: at 100 nM.
The target in assay [6] is 5-hydroxytryptamine receptor 4 (Homo sapiens) (UniProt Q13639). The assay is described as follows: Selectivity interaction (CEREB panel (panel of receptors, transporters, ion channels, and other enzymes)) EUB0001119a HTR4. The conditions noted are these: at 10 µM.
Assay [7] addresses Sodium channel protein type 2 subunit alpha (Homo sapiens) (UniProt Q99250). Kind of assay: Selectivity interaction (CEREB panel (panel of receptors, transporters, ion channels, and other enzymes)) EUB0001119a SCN2A. The conditions noted are these: at 10 µM.
In assay [8] the target is Serine/threonine-protein kinase 24 (Homo sapiens) (UniProt Q9Y6E0). Kind of assay: Selectivity interaction (Kinase panel (Invitrogen)) EUB0001119a STK24. The conditions noted are these: at 100 nM.
In assay [9] the target is Serine/threonine-protein kinase PAK 3 (Homo sapiens) (UniProt O75914). Kind of assay: Selectivity interaction (Kinase panel (Invitrogen)) EUB0001119a PAK3. The conditions noted are these: at 100 nM.
Assay [10] deals with T1, 5-hydroxytryptamine receptor 1A (Homo sapiens) (UniProt P08908).
T1 sequence (whole entry): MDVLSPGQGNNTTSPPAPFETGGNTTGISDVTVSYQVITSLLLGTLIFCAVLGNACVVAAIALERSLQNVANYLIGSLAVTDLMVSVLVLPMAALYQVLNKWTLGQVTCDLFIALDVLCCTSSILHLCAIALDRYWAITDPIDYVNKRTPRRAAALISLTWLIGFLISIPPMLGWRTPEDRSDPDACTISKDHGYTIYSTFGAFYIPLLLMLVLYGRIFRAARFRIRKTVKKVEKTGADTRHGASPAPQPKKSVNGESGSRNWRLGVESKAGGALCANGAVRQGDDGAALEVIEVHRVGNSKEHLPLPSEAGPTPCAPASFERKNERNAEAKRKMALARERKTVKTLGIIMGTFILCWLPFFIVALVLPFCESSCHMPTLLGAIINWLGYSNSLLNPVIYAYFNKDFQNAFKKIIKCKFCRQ
The assay is described as follows: Selectivity interaction (CEREB panel (panel of receptors, transporters, ion channels, and other enzymes)) EUB0001119a HTR1A. The conditions noted are these: at 10 µM.

The target in assay [11] is Serine/threonine-protein kinase PAK 2 (Homo sapiens) (UniProt Q13177). The conditions noted are these: at 100 nM.
In assay [12] the target is T2, 5-hydroxytryptamine receptor 2B (Homo sapiens, UniProt P41595). Kind of assay: Selectivity interaction (CEREB panel (panel of receptors, transporters, ion channels, and other enzymes)) EUB0001119a HTR2B. The conditions noted are these: at 10 µM.
The target of assay [13] is Mitogen-activated protein kinase kinase kinase kinase 5 (Homo sapiens) (UniProt Q9Y4K4). The assay is described as follows: Selectivity interaction (Kinase panel (Invitrogen)) EUB0001119a MAP4K5. The conditions noted are these: at 100 nM.
Assay [14] has as its target T3, Serine/threonine-protein kinase 26 (Homo sapiens, UniProt Q9P289). The conditions noted are these: at 100 nM.
Assay [15] deals with 5-hydroxytryptamine receptor 2A (Homo sapiens, UniProt P28223). The assay is described as follows: Selectivity interaction (CEREB panel (panel of receptors, transporters, ion channels, and other enzymes)) EUB0001119a HTR2A. The conditions noted are these: at 10 µM.
Assay [16] addresses Tyrosine-protein kinase Lck (Homo sapiens, UniProt P06239). The assay is described as follows: Selectivity interaction (Kinase panel (Invitrogen)) EUB0001119a LCK. The conditions noted are these: at 100 nM.
Assay [17] addresses Serine/threonine-protein kinase PAK 1 (Homo sapiens) (UniProt Q13153). Kind of assay: Selectivity interaction (Kinase panel (DSF assayt)) EUB0001479a PAK1. For orientation: Differential scanning fluorimetry follows unfolding on heating by fluorescence.
Assay [18] addresses Serine/threonine-protein kinase 24 (Homo sapiens) (UniProt Q9Y6E0). The assay is described as follows: Selectivity interaction (Kinase panel (DSF assay)) EUB0001479a STK24.
The target in assay [19] is T3, Serine/threonine-protein kinase 26. The assay is described as follows: Selectivity interaction (Kinase panel (DSF assay)) EUB0001479a STK26.
Assay [20] concerns the target Mitogen-activated protein kinase kinase kinase kinase 5 (Homo sapiens) (UniProt Q9Y4K4). Kind of assay: Selectivity interaction (Kinase panel (Reaction Biology)) EUB0001464a MAP4K5. The conditions noted are these: at 1 µM.
The target of assay [21] is Epithelial discoidin domain-containing receptor 1 (Homo sapiens) (UniProt Q08345). Kind of assay: Selectivity interaction (Kinase panel (Reaction Biology)) EUB0001464a DDR1. The conditions noted are these: at 1 µM.
Assay [22] has as its target T2, 5-hydroxytryptamine receptor 2B. Kind of assay: Selectivity interaction (GPCR panel (PDSP screen)) EUB0001576a HTR2B. The conditions noted are these: at 10 µM.
In assay [23] the target is Sigma intracellular receptor 2 (Homo sapiens) (UniProt Q5BJF2). Kind of assay: Selectivity interaction (GPCR panel (PDSP screen)) EUB0001576a TMEM97. The conditions noted are these: at 10 µM.
Assay [24] has as its target Sodium-dependent dopamine transporter (Homo sapiens, UniProt Q01959). The assay is described as follows: Selectivity interaction (GPCR panel (PDSP screen)) EUB0001576a SLC6A3. The conditions noted are these: at 10 µM.
Assay [25] concerns the target Mitogen-activated protein kinase kinase kinase kinase 4 (Homo sapiens, UniProt O95819). Kind of assay: Selectivity interaction (Kinase panel (Reaction Biology)) EUB0001184b MAP4K4. The conditions noted are these: at 1 µM.
For assay [26], the target named is Bone morphogenetic protein receptor type-1B (Homo sapiens, UniProt O00238). The assay is described as follows: Selectivity interaction (Kinase panel (Reaction Biology)) EUB0001184b BMPR1B. The conditions noted are these: at 1 µM.
Assay [27] deals with TRAF2 and NCK-interacting protein kinase (Homo sapiens) (UniProt Q9UKE5). The assay is described as follows: Selectivity interaction (Kinase panel (Reaction Biology)) EUB0001184b TNIK. The conditions noted are these: at 1 µM.

T3 sequence (Q9P289 2-416 limits assumed): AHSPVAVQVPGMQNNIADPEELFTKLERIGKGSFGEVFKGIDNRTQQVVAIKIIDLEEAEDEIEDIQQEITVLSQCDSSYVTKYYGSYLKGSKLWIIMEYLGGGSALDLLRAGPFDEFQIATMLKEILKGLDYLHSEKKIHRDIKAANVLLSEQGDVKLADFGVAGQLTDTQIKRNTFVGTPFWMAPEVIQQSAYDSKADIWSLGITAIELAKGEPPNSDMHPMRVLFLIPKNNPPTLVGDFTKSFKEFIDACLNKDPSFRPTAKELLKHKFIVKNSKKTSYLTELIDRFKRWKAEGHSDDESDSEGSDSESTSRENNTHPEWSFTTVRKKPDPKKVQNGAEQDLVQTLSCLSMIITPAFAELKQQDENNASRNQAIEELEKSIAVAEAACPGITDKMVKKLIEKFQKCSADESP
Mitogen-activated protein kinase kinase kinase kinase 5 (Homo sapiens), sequence (Q9Y4K4 whole entry, looked up, the tested form may be a part): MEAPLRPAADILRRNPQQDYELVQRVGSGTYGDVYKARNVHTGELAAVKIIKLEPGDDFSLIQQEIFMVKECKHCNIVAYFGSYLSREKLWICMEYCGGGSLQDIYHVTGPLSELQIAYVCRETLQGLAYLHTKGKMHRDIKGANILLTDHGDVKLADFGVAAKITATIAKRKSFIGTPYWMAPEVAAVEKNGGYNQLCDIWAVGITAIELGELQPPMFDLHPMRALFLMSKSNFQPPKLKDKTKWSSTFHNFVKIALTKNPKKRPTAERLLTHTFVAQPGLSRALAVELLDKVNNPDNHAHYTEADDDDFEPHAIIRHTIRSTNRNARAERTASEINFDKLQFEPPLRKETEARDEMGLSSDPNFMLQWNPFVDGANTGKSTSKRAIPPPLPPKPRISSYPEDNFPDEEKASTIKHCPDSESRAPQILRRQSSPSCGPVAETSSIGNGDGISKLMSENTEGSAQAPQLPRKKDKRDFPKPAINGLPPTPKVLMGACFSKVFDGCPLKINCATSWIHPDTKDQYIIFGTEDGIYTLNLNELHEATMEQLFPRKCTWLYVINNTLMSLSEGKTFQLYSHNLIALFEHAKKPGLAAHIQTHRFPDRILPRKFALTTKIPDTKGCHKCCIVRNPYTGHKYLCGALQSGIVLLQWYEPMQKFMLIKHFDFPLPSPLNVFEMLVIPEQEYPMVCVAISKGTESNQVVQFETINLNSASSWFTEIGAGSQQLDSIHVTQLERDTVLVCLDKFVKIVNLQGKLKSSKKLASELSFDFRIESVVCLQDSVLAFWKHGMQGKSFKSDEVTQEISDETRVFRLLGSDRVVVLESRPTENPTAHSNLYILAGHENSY
Serine/threonine-protein kinase 24 (Homo sapiens), sequence (Q9Y6E0 whole entry, looked up): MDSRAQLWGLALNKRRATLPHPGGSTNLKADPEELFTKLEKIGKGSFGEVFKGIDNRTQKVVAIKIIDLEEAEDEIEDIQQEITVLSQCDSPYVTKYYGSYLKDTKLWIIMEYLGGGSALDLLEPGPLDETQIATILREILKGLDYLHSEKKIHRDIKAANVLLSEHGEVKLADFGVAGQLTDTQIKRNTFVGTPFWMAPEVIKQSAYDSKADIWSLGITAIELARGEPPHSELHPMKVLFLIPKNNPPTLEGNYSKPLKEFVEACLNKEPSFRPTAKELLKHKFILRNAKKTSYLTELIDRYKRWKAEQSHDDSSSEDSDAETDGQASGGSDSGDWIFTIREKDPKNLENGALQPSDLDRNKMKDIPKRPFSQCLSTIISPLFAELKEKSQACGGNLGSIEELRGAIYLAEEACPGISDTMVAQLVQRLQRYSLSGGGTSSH
T2 sequence (P41595 whole entry): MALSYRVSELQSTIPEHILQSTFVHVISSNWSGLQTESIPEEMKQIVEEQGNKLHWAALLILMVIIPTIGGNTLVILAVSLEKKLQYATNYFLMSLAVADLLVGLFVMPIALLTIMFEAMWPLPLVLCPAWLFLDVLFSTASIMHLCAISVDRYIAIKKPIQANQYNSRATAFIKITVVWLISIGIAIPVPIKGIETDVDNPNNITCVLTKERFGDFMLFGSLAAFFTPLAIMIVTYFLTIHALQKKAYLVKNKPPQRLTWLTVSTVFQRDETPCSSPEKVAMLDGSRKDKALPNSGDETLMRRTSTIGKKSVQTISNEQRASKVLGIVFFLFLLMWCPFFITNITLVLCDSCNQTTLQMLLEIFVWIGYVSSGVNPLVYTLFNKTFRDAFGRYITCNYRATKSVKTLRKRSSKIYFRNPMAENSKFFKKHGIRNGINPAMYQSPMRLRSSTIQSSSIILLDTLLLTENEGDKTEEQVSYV
Serine/threonine-protein kinase SIK1 (Homo sapiens), sequence (P57059 whole entry): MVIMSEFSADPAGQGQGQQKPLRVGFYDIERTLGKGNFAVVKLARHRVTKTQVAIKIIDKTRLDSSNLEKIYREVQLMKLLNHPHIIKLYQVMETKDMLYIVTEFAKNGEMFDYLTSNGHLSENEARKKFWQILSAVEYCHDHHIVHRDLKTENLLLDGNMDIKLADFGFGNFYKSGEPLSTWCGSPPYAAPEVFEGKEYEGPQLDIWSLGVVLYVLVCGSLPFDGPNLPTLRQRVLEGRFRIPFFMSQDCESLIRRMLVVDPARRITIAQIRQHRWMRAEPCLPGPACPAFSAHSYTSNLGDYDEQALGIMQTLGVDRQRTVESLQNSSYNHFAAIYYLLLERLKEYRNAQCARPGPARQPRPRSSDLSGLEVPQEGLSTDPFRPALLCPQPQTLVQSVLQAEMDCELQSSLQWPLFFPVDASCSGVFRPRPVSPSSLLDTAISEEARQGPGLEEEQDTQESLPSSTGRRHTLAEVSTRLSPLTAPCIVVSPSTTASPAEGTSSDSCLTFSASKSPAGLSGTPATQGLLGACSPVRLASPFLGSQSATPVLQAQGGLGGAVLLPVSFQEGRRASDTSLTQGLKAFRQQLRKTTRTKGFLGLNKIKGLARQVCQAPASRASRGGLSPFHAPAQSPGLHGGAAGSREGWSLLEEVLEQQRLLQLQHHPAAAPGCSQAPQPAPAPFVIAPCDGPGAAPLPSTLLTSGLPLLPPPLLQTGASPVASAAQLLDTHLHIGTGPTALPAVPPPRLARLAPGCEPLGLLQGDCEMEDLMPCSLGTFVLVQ
Mitogen-activated protein kinase kinase kinase kinase 4, sequence (O95819 2-1239 limits assumed): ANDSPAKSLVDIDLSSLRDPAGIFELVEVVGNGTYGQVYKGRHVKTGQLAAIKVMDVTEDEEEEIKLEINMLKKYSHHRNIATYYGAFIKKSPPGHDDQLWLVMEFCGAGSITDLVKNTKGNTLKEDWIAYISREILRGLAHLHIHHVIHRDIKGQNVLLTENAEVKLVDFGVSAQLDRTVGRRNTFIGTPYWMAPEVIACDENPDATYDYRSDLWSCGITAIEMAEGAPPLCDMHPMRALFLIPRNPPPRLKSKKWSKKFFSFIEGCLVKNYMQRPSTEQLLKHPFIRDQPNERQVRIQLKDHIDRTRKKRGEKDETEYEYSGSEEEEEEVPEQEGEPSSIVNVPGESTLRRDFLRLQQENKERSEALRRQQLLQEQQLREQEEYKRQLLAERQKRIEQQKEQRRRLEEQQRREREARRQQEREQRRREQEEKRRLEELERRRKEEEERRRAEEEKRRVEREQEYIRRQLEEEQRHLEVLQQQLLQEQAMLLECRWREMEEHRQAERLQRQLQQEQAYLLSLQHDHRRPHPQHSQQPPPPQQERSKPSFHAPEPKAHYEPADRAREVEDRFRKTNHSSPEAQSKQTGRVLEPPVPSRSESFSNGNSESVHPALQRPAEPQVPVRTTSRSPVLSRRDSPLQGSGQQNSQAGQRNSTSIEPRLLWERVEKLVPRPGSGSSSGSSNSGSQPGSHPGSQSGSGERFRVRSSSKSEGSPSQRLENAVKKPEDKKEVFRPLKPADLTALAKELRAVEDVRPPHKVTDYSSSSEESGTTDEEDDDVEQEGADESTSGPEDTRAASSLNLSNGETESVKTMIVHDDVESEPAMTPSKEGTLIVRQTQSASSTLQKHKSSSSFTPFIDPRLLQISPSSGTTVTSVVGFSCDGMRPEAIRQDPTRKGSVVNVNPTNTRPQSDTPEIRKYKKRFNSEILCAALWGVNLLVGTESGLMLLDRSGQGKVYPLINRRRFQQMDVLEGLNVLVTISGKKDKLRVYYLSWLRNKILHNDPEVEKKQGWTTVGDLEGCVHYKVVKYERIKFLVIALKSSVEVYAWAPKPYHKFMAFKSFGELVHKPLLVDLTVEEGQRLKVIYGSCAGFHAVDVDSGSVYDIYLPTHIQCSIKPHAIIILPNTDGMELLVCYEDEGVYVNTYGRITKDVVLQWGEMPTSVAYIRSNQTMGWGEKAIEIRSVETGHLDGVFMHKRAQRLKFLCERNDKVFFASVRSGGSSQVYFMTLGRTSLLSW
Serine/threonine-protein kinase PAK 3 (Homo sapiens), sequence (O75914 whole entry, looked up): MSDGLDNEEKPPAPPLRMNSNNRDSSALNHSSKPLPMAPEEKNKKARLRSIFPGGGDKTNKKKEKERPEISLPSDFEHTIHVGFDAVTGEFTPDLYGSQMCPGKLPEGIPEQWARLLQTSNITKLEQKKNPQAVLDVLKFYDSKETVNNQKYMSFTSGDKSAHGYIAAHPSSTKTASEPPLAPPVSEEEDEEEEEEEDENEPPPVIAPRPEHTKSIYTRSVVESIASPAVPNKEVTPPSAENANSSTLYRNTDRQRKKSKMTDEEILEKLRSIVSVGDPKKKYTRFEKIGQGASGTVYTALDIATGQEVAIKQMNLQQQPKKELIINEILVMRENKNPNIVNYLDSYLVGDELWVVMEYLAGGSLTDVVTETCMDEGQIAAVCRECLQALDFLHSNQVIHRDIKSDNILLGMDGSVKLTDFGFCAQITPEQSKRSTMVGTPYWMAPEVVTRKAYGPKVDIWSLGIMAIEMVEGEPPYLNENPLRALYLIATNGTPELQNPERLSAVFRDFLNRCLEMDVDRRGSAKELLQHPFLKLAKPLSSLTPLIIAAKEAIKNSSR
Sigma intracellular receptor 2 (Homo sapiens), sequence (Q5BJF2 whole entry): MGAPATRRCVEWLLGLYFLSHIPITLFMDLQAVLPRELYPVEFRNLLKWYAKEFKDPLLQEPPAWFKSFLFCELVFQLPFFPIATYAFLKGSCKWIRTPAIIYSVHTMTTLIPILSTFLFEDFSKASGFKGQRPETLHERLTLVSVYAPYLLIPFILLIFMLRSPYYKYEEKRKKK

With `COc1cc(-c2cn[nH]c2)ccc1C(=O)Nc1ccc2c(c1)CCNCC2`, the % of control in assay [1] was determined as 55%; in assay [2] it was 59%; in [3], 60%.

For the molecule `CNc1ncc2cc(-c3ccc(-c4cccc(C)n4)cc3Cl)c(=O)n(C[C@H]3OC[C@H](N)CO3)c2n1`, the % of inhibition in assay [4] was determined as 84%; in [5] it was 95.3%; in assay [6] it was 75%; in assay [7] it was 75%; in assay [8], 80.6%; in [9], 91.5%. The % of inhibition in assay [10] came out at 56%; in assay [11] it was 101%; in assay [12] it was 92%; in [13], 99.8%; in assay [14] it was 89.7%; in [15] it was 75%. Also, the % of inhibition in assay [16] worked out at 75.7%.

Consider `CN(C)c1ncc2cc(-c3ccc(-c4ncccc4F)cc3Cl)c(=O)n(C[C@H]3OC[C@H](N)CO3)c2n1`, for which the dTM in [17] turned out to be 0.9 K; in assay [18], 0.2 K; in assay [19] it was 0.8 K.

For the molecule `c1ccc2c(-c3coc4cc(-c5ccc(N6CCNCC6)cc5)cnc34)ccnc2c1`, the % of inhibition in assay [20] and in assay [21] was 28% each time.

Turning to `CN(C)C(=O)c1sc2nc(N3CCC(S(C)(=O)=O)CC3)cc(C(F)(F)F)c2c1N`, the % of inhibition stood at 47.5% in [22], 70.6% in assay [23] and 80.5% in assay [24].

Consider `COc1cc(-c2cncc(-c3ccc(N4CCN(C(C)C)CC4)cc3)c2C)cc(F)c1C(N)=O`, for which the % of inhibition in [25] is 30%; in assay [26] it was 27%; in assay [27], 4.92%.
